Patent publication US20170226139A1, “CRYSTALLINE SALTS OF (Z)-O-OCTADEC-9-EN-1-YL O,O-DIHYDROGEN PHOSPHOROTHIOATE” (priority 2013, published 2017)
≈ marks a conversion by molar mass, not a printed value.

Experiments:
[1] = molecular target: LPA2 receptors from the rhesus (Macaca mulatta, UniProt I2CXV3); experiment: Calcium-mobilization assay (FURA-2), rhesus LPA2; type: cell-based
Description: We investigated structure-activity relationships across species, LPAR subtypes and between Rx100 and two known process impurities encountered in manufacture: Rx103 (‘E’ isomer) and Rx200 (oleyl phosphate and impurity, which can be an Rx100 degradant along with oleyl alcohol). Rx100, Rx103, Rx200 and native LPA were investigated at different human LPAR subtypes. In addition, the activity of these compounds was evaluated at LPA2 receptors from the rhesus, rat and mouse species. Human LPA1/2/3 subtypes were transfected into mouse embryonic fibroblasts (MEF) or rat hepatoma cells (RH7777)—both of which are normally non-responsive or null to LPA. Human LPA4 was transfected into Chinese hamster ovary (CHO) cells and LPA5 into the B103 neuroblastoma cell line. […] The B103 rat neuroblastoma cell line is endogenously nonresponsive to LPA but expresses heterologous LPA5 receptors well. […] LPAR activation elicits a G-protein-mediated transient rise in intracellular calcium level that is proportional to the concentration of LPA applied. The intracellular calcium level was quantified by the calcium-selective fluorescent indicator FURA-2 (e.g., increased intracellular calcium surge=increased fluorescence).

[2] = molecular target: T1, cloned hERG Potassium Channels expressed in human embryonic kidney cells (Homo sapiens, UniProt Q12809); experiment: hERG assay; type: cell-based
T1 construct: expressed in transfected cells; host or cells: human embryonic kidney cells
T1 sequence (Q12809 whole entry): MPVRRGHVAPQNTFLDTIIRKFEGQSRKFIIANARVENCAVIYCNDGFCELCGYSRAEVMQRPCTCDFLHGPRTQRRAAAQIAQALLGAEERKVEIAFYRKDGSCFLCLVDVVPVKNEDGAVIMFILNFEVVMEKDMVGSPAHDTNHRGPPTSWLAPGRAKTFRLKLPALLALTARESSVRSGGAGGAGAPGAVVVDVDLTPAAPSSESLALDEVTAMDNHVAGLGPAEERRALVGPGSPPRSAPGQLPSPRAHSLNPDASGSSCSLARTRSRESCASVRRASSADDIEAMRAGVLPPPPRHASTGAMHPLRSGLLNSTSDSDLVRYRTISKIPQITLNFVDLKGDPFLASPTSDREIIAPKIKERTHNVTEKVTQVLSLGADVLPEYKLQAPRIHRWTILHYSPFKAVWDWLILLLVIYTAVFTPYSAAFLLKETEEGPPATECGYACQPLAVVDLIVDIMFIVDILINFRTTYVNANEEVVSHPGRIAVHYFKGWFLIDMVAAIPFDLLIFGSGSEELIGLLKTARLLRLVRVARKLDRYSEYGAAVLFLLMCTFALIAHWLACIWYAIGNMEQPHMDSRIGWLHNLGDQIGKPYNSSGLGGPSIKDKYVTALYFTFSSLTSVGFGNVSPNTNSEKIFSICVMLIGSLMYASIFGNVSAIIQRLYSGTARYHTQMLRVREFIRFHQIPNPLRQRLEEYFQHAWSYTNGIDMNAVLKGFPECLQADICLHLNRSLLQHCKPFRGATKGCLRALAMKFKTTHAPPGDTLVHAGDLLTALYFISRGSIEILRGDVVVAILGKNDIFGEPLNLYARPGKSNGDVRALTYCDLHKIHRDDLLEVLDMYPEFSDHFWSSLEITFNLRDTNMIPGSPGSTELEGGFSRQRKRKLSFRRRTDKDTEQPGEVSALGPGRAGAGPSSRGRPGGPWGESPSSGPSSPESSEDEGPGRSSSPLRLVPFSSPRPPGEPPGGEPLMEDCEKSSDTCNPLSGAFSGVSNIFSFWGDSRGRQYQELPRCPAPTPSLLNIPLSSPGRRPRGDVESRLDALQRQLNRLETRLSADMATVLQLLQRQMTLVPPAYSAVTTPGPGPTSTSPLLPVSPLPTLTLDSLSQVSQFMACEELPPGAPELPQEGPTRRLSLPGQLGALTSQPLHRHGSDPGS

[3] = Solubility measurement by gravimetric method in various solvents; type: physicochemical; details: for solubility: thermodynamic from solid
Description: In addition, the Rx100 L-Lysate salt was further characterized under abbreviated polymorph evaluation. First, the solubility measurement by gravimetric method was performed. Briefly, excess amount of solid was slurried in various solvents at ambient conditions and elevated temperature (50° C.) for minimum of 24 hours. The slurry was centrifuged using a temperature controlled centrifuge and the supernatant was used for gravimetric method. Table 15 presents the solubility data measured using this gravimetric method in various solvents for the L-Lysine salt. In cases where the solvent dissolved all of the solid, the value is shown as “greater than”.

male Sprague Dawley rats = experiment: Central nervous system safety pharmacology, modified Irwin battery; type: in vivo; details: SC 1.81, 6.33 and 18.1 mg/kg; through 24 hours post-dose
Description: Four groups of male Sprague Dawley rats (n=8/group) were administered Rx100.lysine via subcutaneous injection at doses of 0 (10 mM histidine in sterile water for Injection, USP), 1.81, 6.33 and 18.1 mg/kg as the free acid. Animals were assessed pre-dose and through 24 hours post-dose for a variety of behavioral, neurological and autonomic responses using the modified Irwin battery of assessments. Dose formulation analyses were conducted and samples ranged from 99 to 104% of target. The only effect observed was a small (0.8 to 1.5 degrees C.) decrease in body temperature noted at 2-4 hours postdose.

[4] = abbreviated polymorph screening

Chain of LPA2 receptors from the rhesus (I2CXV3 1-351): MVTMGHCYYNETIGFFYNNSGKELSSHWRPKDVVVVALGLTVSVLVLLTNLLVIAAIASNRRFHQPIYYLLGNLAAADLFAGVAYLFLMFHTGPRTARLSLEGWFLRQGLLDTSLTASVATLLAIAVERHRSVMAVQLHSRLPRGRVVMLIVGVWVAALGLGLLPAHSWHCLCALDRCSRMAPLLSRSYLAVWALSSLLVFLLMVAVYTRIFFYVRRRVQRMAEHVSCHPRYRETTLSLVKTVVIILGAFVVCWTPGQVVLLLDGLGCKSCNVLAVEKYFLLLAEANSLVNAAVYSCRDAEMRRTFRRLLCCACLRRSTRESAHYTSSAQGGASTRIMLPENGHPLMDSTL

CCCCCCCC/C=C\CCCCCCCCOP(O)(O)=S [Rx100, (Z)—O-octadec-9-en-1-yl O,O-dihydrogen phosphorothioate]
EC50 [1]: 0.104 µM | Emax ([1]; read-out: Emax (% of LPA)): 100% | IC50 [2]: ~600 µM | hERG IC50 relative to anticipated therapeutic concentrations [2]: 100 fold

CCCCCCCC/C=C\CCCCCCCCOP(O)(O)=S [Rx100.L-Lysine, (Z)—O-octadec-9-en-1-yl O,O-dihydrogen phosphorothioate]
Solubility, gravimetric method ([3]; EtOH:water (v/v) [1:1], 25° C.): Gelled | Solubility, gravimetric method ([3]; EtOH:water (v/v) [7:3], 25° C.): Gelled | Solubility, gravimetric method ([3]; EtOH:water (v/v) [7:3], 50° C.): Gelled | Solubility, gravimetric method ([3]; IPA:water (v/v) [7:3], 25° C.): Gelled | Solubility, gravimetric method ([3]; IPA:water (v/v) [7:3], 50° C.): Gelled | Solubility, gravimetric method ([3]; MeOH:water (v/v) [1:1], 25° C.): Gelled | Solubility, gravimetric method ([3]; MeOH:water (v/v) [7:3], 50° C.): Gelled | Solubility in most aqueous solvent systems [3, 4]: moderate to high solubility | Solubility in organic systems [3, 4]: limited solubility | solubility ([3]; aqueous with cosolvent or surfactant or cyclodextrin, EtOH:water (v/v) [1:1], 50° C.): > 68 mg/mL | solubility ([3]; aqueous with cosolvent or surfactant or cyclodextrin, EtOH:water (v/v) [3:7], 25° C.): > 40 mg/mL | solubility ([3]; aqueous with cosolvent or surfactant or cyclodextrin, EtOH:water (v/v) [3:7], 50° C.): > 84 mg/mL | solubility ([3]; aqueous with cosolvent or surfactant or cyclodextrin, IPA:water (v/v) [1:1], 25° C.): > 40 mg/mL | solubility ([3]; aqueous with cosolvent or surfactant or cyclodextrin, IPA:water (v/v) [1:1], 50° C.): > 86 mg/mL | solubility ([3]; aqueous with cosolvent or surfactant or cyclodextrin, IPA:water (v/v) [3:7], 25° C.): > 46 mg/mL | solubility ([3]; aqueous with cosolvent or surfactant or cyclodextrin, IPA:water (v/v) [3:7], 50° C.): > 70 mg/mL | solubility ([3]; aqueous with cosolvent or surfactant or cyclodextrin, MeOH:water (v/v) [1:1], 50° C.): > 80 mg/mL | solubility ([3]; aqueous with cosolvent or surfactant or cyclodextrin, MeOH:water (v/v) [3:7], 25° C.): > 48 mg/mL | solubility ([3]; aqueous with cosolvent or surfactant or cyclodextrin, MeOH:water (v/v) [3:7], 50° C.): > 86 mg/mL | solubility ([3]; aqueous with cosolvent or surfactant or cyclodextrin, MeOH:water (v/v) [7:3], 25° C.): 20 mg/mL (≈ 54.9 mM) | solubility ([3]; organic solvent or mixture, EtOH, 50° C.): 3 mg/mL (≈ 8.23 mM) | solubility ([3]; organic solvent or mixture, Heptane, 50° C.): 3 mg/mL (≈ 8.23 mM) | solubility ([3]; organic solvent or mixture, IPA, 50° C.): 5 mg/mL (≈ 13.7 mM) | solubility ([3]; organic solvent or mixture, MTBE, 50° C.): 4 mg/mL (≈ 11 mM) | solubility ([3]; organic solvent or mixture, MeOH, 50° C.): 4 mg/mL (≈ 11 mM) | solubility ([3]; Water, 25° C.): > 48 mg/mL | solubility ([3]; Water, 50° C.): > 76 mg/mL | other parameters of the modified Irwin battery (male Sprague Dawley rats): No other effects
